Experimental data published in ChEMBL document CHEMBL2429821, “A Casein kinase 1/Checkpoint kinase 1 pyrazolo-pyridine protein kinase inhibitor as novel activator of the p53 pathway” (Bioorg Med Chem Lett, 2013).

Columns and labels:
[1] = biological target: Proto-oncogene tyrosine-protein kinase Src (Homo sapiens) (UniProt P12931); experiment: Inhibition of human SRC assessed as residual activity at 1 uM relative to control
[2] = biological target: Ephrin type-A receptor 2 (Homo sapiens) (UniProt P29317); experiment: Inhibition of human EPHA2 assessed as residual activity at 1 uM relative to control
[3] = biological target: T1, Eukaryotic elongation factor 2 kinase (Homo sapiens) (UniProt O00418); experiment: Inhibition of human EF2K assessed as residual activity at 10 uM relative to control
T1 sequence (whole entry): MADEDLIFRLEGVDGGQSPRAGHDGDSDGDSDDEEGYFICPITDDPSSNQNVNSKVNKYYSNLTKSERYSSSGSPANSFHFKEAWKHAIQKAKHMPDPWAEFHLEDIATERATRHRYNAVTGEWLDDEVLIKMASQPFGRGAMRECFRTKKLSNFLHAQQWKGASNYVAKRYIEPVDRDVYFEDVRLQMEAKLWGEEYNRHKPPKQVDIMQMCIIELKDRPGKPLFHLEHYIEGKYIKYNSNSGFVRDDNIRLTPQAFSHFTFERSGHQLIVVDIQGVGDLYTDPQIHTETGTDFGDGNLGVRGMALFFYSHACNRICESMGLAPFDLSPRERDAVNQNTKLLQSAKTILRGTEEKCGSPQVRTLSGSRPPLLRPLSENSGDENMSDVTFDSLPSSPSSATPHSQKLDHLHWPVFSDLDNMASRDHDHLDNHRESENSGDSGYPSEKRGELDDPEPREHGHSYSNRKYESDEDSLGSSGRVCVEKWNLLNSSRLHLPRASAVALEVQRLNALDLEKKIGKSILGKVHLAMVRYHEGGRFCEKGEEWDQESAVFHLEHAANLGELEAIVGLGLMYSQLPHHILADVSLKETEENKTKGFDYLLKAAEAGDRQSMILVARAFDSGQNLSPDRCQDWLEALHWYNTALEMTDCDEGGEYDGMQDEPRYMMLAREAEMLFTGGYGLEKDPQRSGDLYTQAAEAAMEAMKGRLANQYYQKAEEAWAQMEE

[4] = biological target: Mitogen-activated protein kinase 8 (Homo sapiens) (UniProt P45983); experiment: Inhibition of human JNK1 assessed as residual activity at 10 uM relative to control
[5] = biological target: RAC-alpha serine/threonine-protein kinase (Homo sapiens) (UniProt P31749); experiment: Inhibition of human PKBalpha assessed as residual activity at 1 uM relative to control
Chain of RAC-alpha serine/threonine-protein kinase (Homo sapiens) (P31749 whole entry): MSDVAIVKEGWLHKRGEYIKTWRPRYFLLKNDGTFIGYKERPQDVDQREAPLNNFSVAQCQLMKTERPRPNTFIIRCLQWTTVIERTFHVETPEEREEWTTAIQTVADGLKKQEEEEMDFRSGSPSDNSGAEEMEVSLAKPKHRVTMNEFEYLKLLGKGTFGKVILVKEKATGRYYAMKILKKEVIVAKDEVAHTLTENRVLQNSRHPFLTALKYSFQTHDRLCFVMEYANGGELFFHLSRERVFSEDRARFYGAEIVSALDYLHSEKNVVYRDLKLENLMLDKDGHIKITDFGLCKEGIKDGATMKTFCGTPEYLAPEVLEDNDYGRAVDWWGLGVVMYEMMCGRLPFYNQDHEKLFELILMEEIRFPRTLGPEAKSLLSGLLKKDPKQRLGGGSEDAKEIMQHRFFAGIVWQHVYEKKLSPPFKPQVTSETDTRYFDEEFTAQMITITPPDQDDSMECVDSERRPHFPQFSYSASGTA

[6] = biological target: Insulin receptor (Homo sapiens) (UniProt P06213); experiment: Inhibition of human IR assessed as residual activity at 10 uM relative to control
Chain of Insulin receptor (Homo sapiens) (P06213 28-758 limits assumed): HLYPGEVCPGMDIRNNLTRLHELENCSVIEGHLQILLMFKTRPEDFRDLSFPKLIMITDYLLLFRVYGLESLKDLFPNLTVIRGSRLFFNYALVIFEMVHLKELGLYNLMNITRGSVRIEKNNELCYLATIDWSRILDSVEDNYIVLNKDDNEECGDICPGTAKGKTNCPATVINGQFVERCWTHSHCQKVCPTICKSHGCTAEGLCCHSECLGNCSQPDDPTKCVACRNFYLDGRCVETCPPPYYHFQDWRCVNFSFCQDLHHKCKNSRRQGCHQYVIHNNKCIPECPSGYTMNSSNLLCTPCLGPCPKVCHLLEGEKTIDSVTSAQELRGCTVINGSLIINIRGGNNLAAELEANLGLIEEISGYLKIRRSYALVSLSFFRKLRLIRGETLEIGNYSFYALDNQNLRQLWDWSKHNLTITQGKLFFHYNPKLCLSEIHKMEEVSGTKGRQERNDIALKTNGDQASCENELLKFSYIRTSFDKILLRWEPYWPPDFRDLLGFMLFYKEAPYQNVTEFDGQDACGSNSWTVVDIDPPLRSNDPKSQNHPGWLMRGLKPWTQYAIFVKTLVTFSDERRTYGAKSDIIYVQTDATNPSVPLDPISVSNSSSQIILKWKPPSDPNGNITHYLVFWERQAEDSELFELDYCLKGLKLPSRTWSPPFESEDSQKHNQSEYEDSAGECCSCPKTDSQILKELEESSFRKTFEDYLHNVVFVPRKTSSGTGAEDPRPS
Chain of Insulin receptor (Homo sapiens) (P06213 763-1382 limits assumed): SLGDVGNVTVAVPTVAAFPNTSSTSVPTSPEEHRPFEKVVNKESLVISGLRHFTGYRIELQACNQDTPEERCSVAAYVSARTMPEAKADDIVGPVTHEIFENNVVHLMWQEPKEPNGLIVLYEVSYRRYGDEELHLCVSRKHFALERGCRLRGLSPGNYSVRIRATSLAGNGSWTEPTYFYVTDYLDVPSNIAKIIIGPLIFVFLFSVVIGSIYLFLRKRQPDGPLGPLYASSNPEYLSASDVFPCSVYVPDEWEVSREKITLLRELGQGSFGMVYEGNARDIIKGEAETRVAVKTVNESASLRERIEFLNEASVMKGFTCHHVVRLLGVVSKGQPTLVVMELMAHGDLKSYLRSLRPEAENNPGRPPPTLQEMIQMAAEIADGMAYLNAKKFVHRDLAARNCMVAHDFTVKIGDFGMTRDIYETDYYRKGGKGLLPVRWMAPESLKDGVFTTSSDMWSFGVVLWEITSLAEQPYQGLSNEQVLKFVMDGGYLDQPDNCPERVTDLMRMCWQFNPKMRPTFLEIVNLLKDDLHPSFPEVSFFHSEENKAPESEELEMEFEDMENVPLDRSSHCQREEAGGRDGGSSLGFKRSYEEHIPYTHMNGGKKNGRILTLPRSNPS

[7] = biological target: Ribosomal protein S6 kinase alpha-5 (Homo sapiens) (UniProt O75582); experiment: Inhibition of human MSK1 assessed as residual activity at 1 uM relative to control
Chain of Ribosomal protein S6 kinase alpha-5 (Homo sapiens) (O75582 whole entry, looked up): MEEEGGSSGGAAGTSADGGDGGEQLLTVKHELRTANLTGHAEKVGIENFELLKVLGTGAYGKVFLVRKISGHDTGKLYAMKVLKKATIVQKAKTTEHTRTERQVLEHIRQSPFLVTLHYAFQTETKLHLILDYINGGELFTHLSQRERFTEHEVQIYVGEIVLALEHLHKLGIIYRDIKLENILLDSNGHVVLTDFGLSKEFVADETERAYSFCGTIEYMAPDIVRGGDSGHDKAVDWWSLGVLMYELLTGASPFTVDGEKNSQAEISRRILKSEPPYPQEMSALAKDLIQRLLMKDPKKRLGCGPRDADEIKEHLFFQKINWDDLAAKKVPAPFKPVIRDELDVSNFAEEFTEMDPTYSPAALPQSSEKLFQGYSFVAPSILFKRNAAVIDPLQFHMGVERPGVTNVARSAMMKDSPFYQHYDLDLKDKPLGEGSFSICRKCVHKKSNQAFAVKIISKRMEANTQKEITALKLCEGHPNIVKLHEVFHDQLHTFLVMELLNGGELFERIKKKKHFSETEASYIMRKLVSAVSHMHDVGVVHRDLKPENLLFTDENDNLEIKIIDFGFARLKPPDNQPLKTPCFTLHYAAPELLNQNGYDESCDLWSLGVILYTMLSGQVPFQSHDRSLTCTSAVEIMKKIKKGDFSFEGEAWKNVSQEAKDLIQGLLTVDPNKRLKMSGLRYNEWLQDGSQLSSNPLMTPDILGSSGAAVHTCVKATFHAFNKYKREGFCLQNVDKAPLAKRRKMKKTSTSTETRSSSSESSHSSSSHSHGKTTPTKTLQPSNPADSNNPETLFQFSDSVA

[8] = biological target: 3-phosphoinositide-dependent protein kinase 1 (Homo sapiens) (UniProt O15530); experiment: Inhibition of human PDK1 assessed as residual activity at 10 uM relative to control
[9] = biological target: Insulin-like growth factor 1 receptor (Homo sapiens) (UniProt P08069); experiment: Inhibition of human IGF-1R assessed as residual activity at 10 uM relative to control
[10] = biological target: RAC-beta serine/threonine-protein kinase (Homo sapiens) (UniProt P31751); experiment: Inhibition of human PKBbeta assessed as residual activity at 1 uM relative to control
[11] = biological target: T2, Serine/threonine-protein kinase TBK1 (Homo sapiens) (UniProt Q9UHD2); experiment: Inhibition of human TBK1 assessed as residual activity at 1 uM relative to control
T2 sequence (whole entry): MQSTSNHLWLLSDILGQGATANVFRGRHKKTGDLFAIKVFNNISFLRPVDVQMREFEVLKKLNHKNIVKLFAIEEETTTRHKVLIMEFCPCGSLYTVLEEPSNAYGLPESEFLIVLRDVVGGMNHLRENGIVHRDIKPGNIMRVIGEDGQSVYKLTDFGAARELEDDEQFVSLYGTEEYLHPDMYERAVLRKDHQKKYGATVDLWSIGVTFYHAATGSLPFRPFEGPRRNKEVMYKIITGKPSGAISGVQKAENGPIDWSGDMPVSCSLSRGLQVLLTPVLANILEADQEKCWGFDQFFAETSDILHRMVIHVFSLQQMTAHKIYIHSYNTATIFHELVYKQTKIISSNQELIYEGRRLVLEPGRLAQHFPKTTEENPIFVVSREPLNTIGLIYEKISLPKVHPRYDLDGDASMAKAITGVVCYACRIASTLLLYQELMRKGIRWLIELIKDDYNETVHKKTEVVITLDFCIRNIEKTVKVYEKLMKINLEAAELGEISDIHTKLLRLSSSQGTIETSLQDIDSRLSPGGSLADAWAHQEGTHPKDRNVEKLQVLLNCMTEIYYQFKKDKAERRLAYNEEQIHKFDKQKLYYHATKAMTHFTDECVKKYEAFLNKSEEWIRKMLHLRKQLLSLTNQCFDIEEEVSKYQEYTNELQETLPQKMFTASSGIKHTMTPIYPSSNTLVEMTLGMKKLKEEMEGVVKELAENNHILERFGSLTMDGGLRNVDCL

[12] = biological target: Tyrosine-protein kinase BTK (Homo sapiens) (UniProt Q06187); experiment: Inhibition of human BTK assessed as residual activity at 10 uM relative to control
Chain of Tyrosine-protein kinase BTK (Homo sapiens) (Q06187 whole entry): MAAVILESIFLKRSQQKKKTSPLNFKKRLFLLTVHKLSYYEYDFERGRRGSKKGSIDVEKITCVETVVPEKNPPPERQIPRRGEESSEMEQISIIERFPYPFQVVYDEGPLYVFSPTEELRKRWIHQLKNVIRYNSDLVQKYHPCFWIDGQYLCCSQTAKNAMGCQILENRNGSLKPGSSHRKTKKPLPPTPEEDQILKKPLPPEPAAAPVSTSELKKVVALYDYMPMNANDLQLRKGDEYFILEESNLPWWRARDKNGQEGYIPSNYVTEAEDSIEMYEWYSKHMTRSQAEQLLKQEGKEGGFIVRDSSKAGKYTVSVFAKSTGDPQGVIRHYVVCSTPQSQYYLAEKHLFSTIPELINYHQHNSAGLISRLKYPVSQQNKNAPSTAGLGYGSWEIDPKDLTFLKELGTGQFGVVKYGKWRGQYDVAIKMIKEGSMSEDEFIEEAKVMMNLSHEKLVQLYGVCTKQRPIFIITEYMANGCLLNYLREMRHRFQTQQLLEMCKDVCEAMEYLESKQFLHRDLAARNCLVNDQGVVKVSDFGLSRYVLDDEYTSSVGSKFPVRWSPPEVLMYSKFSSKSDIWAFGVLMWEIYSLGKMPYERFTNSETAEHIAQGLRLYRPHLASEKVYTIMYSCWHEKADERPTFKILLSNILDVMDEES

[13] = biological target: Mitogen-activated protein kinase 9 (Homo sapiens) (UniProt P45984); experiment: Inhibition of human JNK2 assessed as residual activity at 10 uM relative to control
[14] = biological target: Mitogen-activated protein kinase 9 (Homo sapiens) (UniProt P45984); experiment: Inhibition of human JNK2 assessed as residual activity at 1 uM relative to control
[15] = biological target: Dual specificity tyrosine-phosphorylation-regulated kinase 1A (Rattus norvegicus) (UniProt Q63470); experiment: Inhibition of rat DYRK1alpha assessed as residual activity at 10 uM relative to control
[16] = biological target: Serine/threonine-protein kinase Chk2 (Homo sapiens) (UniProt O96017); experiment: Inhibition of human CHK2 assessed as residual activity at 1 uM relative to control
[17] = biological target: Calcium/calmodulin-dependent protein kinase type 1 (Homo sapiens) (UniProt Q14012); experiment: Inhibition of human CAMK1 assessed as residual activity at 10 uM relative to control
[18] = biological target: Insulin receptor (Homo sapiens) (UniProt P06213); experiment: Inhibition of human IR assessed as residual activity at 1 uM relative to control
[19] = biological target: Serine/threonine-protein kinase Chk2 (Homo sapiens) (UniProt O96017); experiment: Inhibition of human CHK2 assessed as residual activity at 10 uM relative to control
[20] = biological target: Serine/threonine-protein kinase N2 (Homo sapiens) (UniProt Q16513); experiment: Inhibition of human PRK2 assessed as residual activity at 1 uM relative to control
Chain of Serine/threonine-protein kinase N2 (Homo sapiens) (Q16513 whole entry, looked up): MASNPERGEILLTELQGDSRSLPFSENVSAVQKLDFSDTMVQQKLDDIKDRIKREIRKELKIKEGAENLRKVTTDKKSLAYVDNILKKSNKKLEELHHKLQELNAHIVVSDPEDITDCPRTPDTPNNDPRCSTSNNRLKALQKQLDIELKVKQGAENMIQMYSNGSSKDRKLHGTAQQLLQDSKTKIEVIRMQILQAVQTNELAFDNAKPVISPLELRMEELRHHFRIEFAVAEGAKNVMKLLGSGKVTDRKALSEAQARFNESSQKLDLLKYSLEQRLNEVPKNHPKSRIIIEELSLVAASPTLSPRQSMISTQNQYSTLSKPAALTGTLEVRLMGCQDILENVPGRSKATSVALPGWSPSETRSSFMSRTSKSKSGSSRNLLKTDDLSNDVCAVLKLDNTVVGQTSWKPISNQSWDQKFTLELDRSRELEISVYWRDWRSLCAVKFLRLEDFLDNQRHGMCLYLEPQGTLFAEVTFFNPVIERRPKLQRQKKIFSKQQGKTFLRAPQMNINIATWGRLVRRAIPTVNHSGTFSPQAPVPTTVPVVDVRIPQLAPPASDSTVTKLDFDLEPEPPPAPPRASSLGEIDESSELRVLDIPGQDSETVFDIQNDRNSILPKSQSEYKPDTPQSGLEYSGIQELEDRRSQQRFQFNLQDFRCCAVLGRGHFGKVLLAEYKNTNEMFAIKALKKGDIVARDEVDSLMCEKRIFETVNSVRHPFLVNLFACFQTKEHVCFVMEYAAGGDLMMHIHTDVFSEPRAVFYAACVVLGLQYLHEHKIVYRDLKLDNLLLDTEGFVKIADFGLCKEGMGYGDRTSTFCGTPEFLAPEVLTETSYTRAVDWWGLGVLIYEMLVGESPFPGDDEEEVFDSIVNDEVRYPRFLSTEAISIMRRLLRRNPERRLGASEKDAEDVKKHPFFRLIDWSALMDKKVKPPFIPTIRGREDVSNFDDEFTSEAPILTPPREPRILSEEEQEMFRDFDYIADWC

[21] = biological target: Fibroblast growth factor receptor 1 (Homo sapiens, UniProt P11362); experiment: Inhibition of human FGFR1 assessed as residual activity at 1 uM relative to control
[22] = biological target: RAC-alpha serine/threonine-protein kinase (Homo sapiens) (UniProt P31749); experiment: Inhibition of human PKBalpha assessed as residual activity at 10 uM relative to control

Chain of Proto-oncogene tyrosine-protein kinase Src (Homo sapiens) (P12931 2-536 limits assumed): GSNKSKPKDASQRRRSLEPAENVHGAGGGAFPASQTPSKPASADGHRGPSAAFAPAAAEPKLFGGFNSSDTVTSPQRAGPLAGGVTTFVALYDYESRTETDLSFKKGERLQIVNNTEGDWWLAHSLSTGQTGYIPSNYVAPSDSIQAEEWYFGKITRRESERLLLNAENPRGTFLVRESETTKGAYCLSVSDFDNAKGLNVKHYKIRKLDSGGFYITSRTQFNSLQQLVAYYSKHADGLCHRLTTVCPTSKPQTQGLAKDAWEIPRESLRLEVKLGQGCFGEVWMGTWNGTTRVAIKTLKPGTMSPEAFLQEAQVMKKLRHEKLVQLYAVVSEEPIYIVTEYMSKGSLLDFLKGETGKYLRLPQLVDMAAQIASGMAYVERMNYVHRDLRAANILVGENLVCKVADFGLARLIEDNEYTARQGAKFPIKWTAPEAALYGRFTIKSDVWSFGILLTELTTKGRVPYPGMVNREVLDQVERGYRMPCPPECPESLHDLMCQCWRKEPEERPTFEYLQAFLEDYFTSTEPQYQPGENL

| Activity [1] [%] | Activity [2] [%] | Activity [3] [%] | Activity [4] [%] | Activity [5] [%] | Activity [6] [%] | Activity [7] [%] | Activity [8] [%] | Activity [9] [%] | Activity [10] [%] | Activity [11] [%] | Activity [12] [%] | Activity [13] [%] | Activity [14] [%] | Activity [15] [%] | Activity [16] [%] | Activity [17] [%] | Activity [18] [%] | Activity [19] [%] | Activity [20] [%] | Compound | also measured |
| --- | --- | --- | --- | --- | --- | --- | --- | --- | --- | --- | --- | --- | --- | --- | --- | --- | --- | --- | --- | --- | --- |
| 75 | 86 | 95 | 92 | 94 | 101 | 70 | 98 | 92 | 94 | 91 | 69 | 88 | 99 | 2 | 96 | 83 | 101 | 96 | 81 | CCCC(=O)Nc1n[nH]c2ncc(-c3cccnc3)cc12 | Activity [21]: 92%; Activity [22]: 91% |
| 98.3 | 91.2 | 83 | 70.3 | 112 | 100 | 82.7 | 66 | 92.5 | 89.7 | 106 | 99.7 | 23.4 | 85.2 | 102 | 89.5 | 71 | 101 | 78.8 | 77.6 | CC(=O)Nc1nccc(-c2c(-c3ccccc3)noc2C)n1 | Activity [21]: 99.8%; Activity [22]: 115% |
| 65 | 101 | 106 | 66.9 | 89.5 | 94.9 | 95.3 | 70.4 | 12.5 | 94.6 | 88.9 | 16.5 | 70.9 | 98.5 | 39.9 | 68.5 | 68.4 | 106 | 28.9 | 99.9 | CC(=O)Nc1cccc(-c2cnc3[nH]nc(C)c3c2)c1 | Activity [21]: 107%; Activity [22]: 51.1% |
